Laboratory results reported in US5082841A, “3-carbonyl-4-amino-8-substituted quinoline compounds useful in inhibiting gastric acid secretions” (SmithKline Beecham Intercredit B.V., priority 1989, dated 1992).

Biological target: T1, H+ K+ ATPase (lyophilised gastric vesicles) (Sus scrofa, UniProt P19156)
T1 construct: Lyophilised gastric vesicles were prepared from pig fundic mucosa; from tissue; host or cells: pig fundic mucosa (lyophilised gastric vesicles)
Assay: K+-stimulated ATPase activity in lyophilised gastric vesicles
Type: biochemical
Details: lyophilised gastric vesicles from pig fundic mucosa, 37° C., pH 7.0, 1 mM KCl, 30 minutes incubation
Description: The effects of a single high concentration (100 μM) of a compound of structure (I) on K-stimulated ATPase activity in lyophilised gastric vesicles was determined. Preferred compounds of structure (I) were also tested over a range of concentrations to determine IC50 values.
(i) Preparation of lyophilised gastric vesicles (H/K-ATPase)
Lyophilised gastric vesicles were prepared from pig fundic mucosa after the method of Keeling et. al. (Biochem. Pharmacol., 34, 2967, 1985).
(ii) K^+ -stimulated ATPase activity.
K^+ -stimulated ATPase activity was determined at 37° C. in the presence of the following : I0 mM Pipes/Tris buffer pH 7.0, 2 mM MgSO4, 1 mM KCl, 2 mM Na2 ATP and 3-6 μg protein/ml lyophilised gastric vesicles. After incubation for 30 minutes, the inorganic phosphate hydrolysed from ATP was determined by the method of Yoda and Hokin (Biochem. Biophys. Res. Commun. 40, 880, 1970).
Compounds of structure (I) were dissolved in dimethylsulphoxide which up to the highest concentration used had no effect on K+-stimulated ATPase activity.
The effect of the highest concentration of each compound of structure (I) on the recovery of a standard amount of inorganic phosphate wa also determined.

T1 sequence (P19156 2-1034 limits assumed): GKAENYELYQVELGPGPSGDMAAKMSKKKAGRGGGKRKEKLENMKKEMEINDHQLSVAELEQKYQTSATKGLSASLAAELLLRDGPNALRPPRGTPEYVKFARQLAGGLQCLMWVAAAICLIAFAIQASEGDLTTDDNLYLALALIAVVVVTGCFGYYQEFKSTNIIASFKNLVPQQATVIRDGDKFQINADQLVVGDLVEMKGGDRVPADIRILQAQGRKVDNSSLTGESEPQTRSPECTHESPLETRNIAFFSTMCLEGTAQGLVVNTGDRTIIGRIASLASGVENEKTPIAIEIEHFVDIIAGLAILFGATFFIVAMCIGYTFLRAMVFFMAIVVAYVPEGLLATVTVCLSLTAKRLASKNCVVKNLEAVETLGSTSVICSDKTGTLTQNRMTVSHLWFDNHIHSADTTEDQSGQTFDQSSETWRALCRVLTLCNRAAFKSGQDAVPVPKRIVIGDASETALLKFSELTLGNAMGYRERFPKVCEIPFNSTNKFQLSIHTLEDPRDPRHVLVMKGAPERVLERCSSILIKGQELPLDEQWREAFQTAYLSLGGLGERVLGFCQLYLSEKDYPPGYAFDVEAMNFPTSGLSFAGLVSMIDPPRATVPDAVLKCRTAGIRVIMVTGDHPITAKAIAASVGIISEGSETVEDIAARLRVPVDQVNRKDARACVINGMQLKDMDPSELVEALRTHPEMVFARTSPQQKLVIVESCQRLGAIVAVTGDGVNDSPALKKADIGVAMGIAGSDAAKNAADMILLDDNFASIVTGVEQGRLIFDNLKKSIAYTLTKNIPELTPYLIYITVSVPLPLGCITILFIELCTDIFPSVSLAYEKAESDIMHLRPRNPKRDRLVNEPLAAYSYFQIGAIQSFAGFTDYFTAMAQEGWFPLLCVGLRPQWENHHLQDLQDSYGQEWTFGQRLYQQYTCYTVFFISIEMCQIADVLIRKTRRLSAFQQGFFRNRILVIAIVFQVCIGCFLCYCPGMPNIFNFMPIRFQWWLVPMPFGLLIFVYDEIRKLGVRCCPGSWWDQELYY
T1 sequence (P18434 whole entry partner): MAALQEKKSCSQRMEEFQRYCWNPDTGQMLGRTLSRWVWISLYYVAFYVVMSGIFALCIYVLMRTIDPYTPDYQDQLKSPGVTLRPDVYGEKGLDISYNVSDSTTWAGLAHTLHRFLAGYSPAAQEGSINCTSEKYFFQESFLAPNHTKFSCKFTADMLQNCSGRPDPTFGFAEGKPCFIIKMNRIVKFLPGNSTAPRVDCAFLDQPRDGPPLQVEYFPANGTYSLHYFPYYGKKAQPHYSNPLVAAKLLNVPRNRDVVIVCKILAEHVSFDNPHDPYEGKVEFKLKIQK

IC50 | Compound
390 to 3520 nM | CCCC(=O)c1cnc2c(OCCCN(C)C)cccc2c1Nc1ccccc1C [Example 1, 3-butyryl-4-(2-methylphenylamino)-8-(3-dimethylaminopropoxy)quinoline]
390 to 3520 nM | CCCC(=O)c1cnc2c(OCCCN(C)C)cccc2c1Nc1ccc(F)cc1C [Example 2, 3-butyryl-4-(4-fluoro-2-methylphenylamino)-8-(3-dimethylaminopropoxy)quinoline]
390 to 3520 nM | CCCC(=O)c1cnc2c(OCCN(C)C)cccc2c1Nc1ccccc1C [Example 3, 3-butyryl-4-(2-methylphenylamino)-8-(2-dimethylaminoethoxy)quinoline]
390 to 3520 nM | CCCC(=O)c1cnc2c(OCCCN3CCCC3)cccc2c1Nc1ccccc1C [Example 4, 3-butyryl-4-(2-methylphenylamino)-8-(3-(1-pyrrolidinyl)propoxy)quinoline]
390 to 3520 nM | CCCC(=O)c1cnc2c(OCCCN3CCCCC3)cccc2c1Nc1ccccc1C [Example 5, 3-butyryl-4-(2-methylphenylamino)-8-(3-piperidinopropoxy)quinoline]
390 to 3520 nM | CCCC(=O)c1cnc2c(OCCCN3CCOCC3)cccc2c1Nc1ccccc1C [Example 6, 3-butyryl-4-(2-methylphenylamino)-8-(3-morpholinopropoxy)quinoline]
390 to 3520 nM | CCCC(=O)c1cnc2c(C(O)CN3CCOCC3)cccc2c1Nc1ccccc1C (centres unmarked) [Example 7, 3-butyryl-4-(2-methylphenylamino)-8-(1-hydroxy-2-(1-morpholino)ethyl)quinoline]
390 to 3520 nM | CCCC(=O)c1cnc2c(C(O)CN(C)C)cccc2c1Nc1ccccc1C (centres unmarked) [Example 8, 3-butyryl-4-(2-methylphenylamino)-8-(1-hydroxy-2-dimethylaminoethyl)quinoline]
390 to 3520 nM | CCCC(=O)c1cnc2c(OCCCN(C)Cc3ccccc3)cccc2c1Nc1ccccc1C [Example 9, 3-butyryl-4-(2-methylphenylamino)-8-(3-(N-benzyl-N-methylamino)propoxy)quinoline]
390 to 3520 nM | CCCC(=O)c1cnc2c(OCCCN(C)CCCc3ccccc3)cccc2c1Nc1ccccc1C [Example 10, 3-butyryl-4-(2-methylphenylamino)-8-(3-(N-methyl-N-(3-phenylpropyl)amino)propoxy)quinoline]
390 to 3520 nM | CCCC(=O)c1cnc2c(NCCCN3CCOCC3)cccc2c1Nc1ccccc1C [Example 11, 3-butyryl-4-(2-methylphenylamino)-8-(3-morpholinopropylamino)quinoline]
